Test results published in patent US11207289B2, “Use of benzofuran lignans to induce IL-25 expression and suppress mammary tumor metastasis” (ACADEMIA SINICA, priority 2016, dated 2021).

Columns and labels:
SKBR3 cells = assay: MTT assay, cytotoxic effect on SKBR3; format: cell-based, human
Description: M10, WI38, SKBR3, and MDA-MB-231 cells (1×10^5 cells/ml) dispensed in 96-well plates were incubated with vehicle or test compounds (Q2-3) for 24 h or 72 h in corresponding basal medium in a 5% CO2 incubator. To evaluate the effect of secreted IL-25 from Q2-3-treated fibroblasts on growth activity of mammary tumor cells, 4T1 and MDA-MB-231 cells (1×10^4 cells/ml) dispensed in 96-well plates were incubated with control medium or different fibroblast conditioned media (200 μl/ml) which was changed daily for 5 days. All treatments were performed in triplicate cell cultures. The growth activity of cells was assayed using a 3-(4, 5-dimethythiazol-2-yl)-2, 5-diphenyl tetrazolium bromide (MTT; Sigma-Aldrich) colorimetric method. The absorbance at 570 nm (A570) was measured using a multiwall scanning spectrophotometer.
FIG. 1 is a schematic depiction of cytotoxic effects of dihydrobenzofuran lignan (Q2-3) on breast tumor cells. (a): Scheme for synthesis of Q2-3 (methyl (E)-3-[2-(3,4-dihydroxyphenyl)-7-hydroxy-3-methoxycarbonyl-2,3-dihydro-1-benzofuran-5yl]prop-2-enoate) from two caffeic acid methyl ester molecules. (b) and (c): MTT assays for cytotoxic effect of Q2-3 on SKBR3 (ER^−Her^+ human breast cancer cell line), MDA-MB-231 (ER^−Her^− human breast cancer cell line), M10 (human normal epithelial cell line) and WI38 (human lung fibroblast cell line). 2×10^4 cells were seeded and compared for their growth activity after treatment with Q2-3 for 24 or 72 h. The beginning cytotoxic dosage of Q2-3 was detected at 0.3 μM, with >50% kill rate on SKBR3 and MDA-MB-231 cells.
The effects of Q2-3 on cell viability were tested on four different cell lines, i.e., normal human mammary epithelial (M10), normal human […] (WI38), and two human mammary tumor cells (SKBR3 and MDA-MB-231), by treating cells with Q2-3 at various concentrations for 24 h (FIG. 1b) and 72 h (FIG. 1c).

IL-25 = IL-25 expression in lung fibroblasts, 4T1 tumor resection model (IF staining, flow cytometry); format: in vivo, mice
Description: BALB/c mice were subcutaneously injected with 4T1-Luc2 cells (5×10^5/100 μl PBS/mouse) into the fourth mammary fat pad under isoflurane anesthesia. Tumor growth was monitored by measuring the tumor volume according to the formula: volume=length×(width)^2/2. After tumors were established (180-200 mm^3) on day 14, test mice were divided into different groups (8 mice/group) and subjected to different treatments. At 15 days post tumor cell implantation, primary 4T1 tumors in situ were surgically removed by a tumor resection process. For drug treatment, mice were administered with different agents, including vehicle-control (PBS), mouse IL-25 protein (10 μg/kg, ProSpec, Vineland, N.J.), Q2-3 (2, 20 or 100 μg/kg) or docetaxel (2 mg/kg; Sigma-Aldrich), by intravenous injection for 3 weeks (3 injections/week) post tumor resection. For in vivo neutralization of mouse IL-25 activity, mice were treated intraperitoneally with either 100 μg anti-mouse IL-25 (IL-17E) antibody (clone 35B; Biolegend) or isotype control rat IgG (100 μg; rat, IgG1κ; Biolegend) at days 0, 3, 6, 9, 12, 15, 18 post tumor resection. To detect metastasis of human MDA-MD-231-Luc2 tumor cells, nude mice were injected subcutaneously with 5×10^5 MDA-MD-231-Luc2 cells into the mammary fat pad under isoflurane anesthesia. After tumors were established (250-350 mm^3) on day 24, test mice were divided into different groups (8 mice/group) and subjected to different treatments. At 25 days post tumor cell implantation, primary MDA-MD-231-Luc2 tumors in situ were surgically removed by a tumor resection process. For drug treatment, mice were administered with PBS (vehicle-control), Q2-3 (100 μg/kg), docetaxel (5 mg/kg) or Q2-3 (100 μg/kg)+docetaxel (5 mg/kg), by intravenous injection for 3 weeks (3 injections/week) post tumor resection. To monitor the progression of mouse (4T1) or human (MDA-MD-231) metastatic tumors, test mice treated with different drugs/agents were compared for their tumor metastatic activity and survival rate aftern another 8 weeks. Bioluminescence signals from the 4T1-luc2 tumor cells in test mice were analyzed using a non-invasive IVIS imaging system (Calipers, Hopkinton, Mass.) after intraperitoneal injection of 150 mg/kg D-luciferin (NanoLight technology, Pinetop, Ariz.).
Lung tissue specimens obtained from each tumor-resected mouse were fixed with 4% formalin and embedded in paraffin. For histological comparison, 6 μm-thick tissue sections were made and stained with hematoxylin and eosin (H&E). For immunofluorescence staining, fixed tissue sections were initially immersed in boiling sodium citrate buffer (0.01 M sodium citrate buffer, pH 6.0) for 30 min Lung tissue sections were blocked with 5% nonfat milk, and incubated with anti-FSP-1 antibody (1:200 dilution; Millipore), FITC-conjugated anti-CD206 antibody (1:200 dilution; Biolegend) or PE-conjugated anti-IL-25 antibody (1:100; R&D) in 1% nonfat milk for 1 hour at room temperature. Sections were then washed with PBS containing 0.1% Tween 20. To detect primary antibodies, some sections were incubated with FITC-conjugated anti-mouse-IgG (1:200; Jackson Immunoresearch, West Grove, Pa.) for FSP-1. 4′,6-Diamidino-2-phenylindole dihydrochloride (1 μg/ml; Sigma-Aldrich) was used to stain the nuclei. Fluorescence microscopy evaluation of immunostained tissue sections was performed using a Zeiss Axiovert 200 M microscope (Carl Zeiss, Heidelberg, Germany) Images were captured with a digital camera (Orca ER, Hamamatsu) and processed using Axiovision 4.6.3 (Carl Zeiss).
For detection of myeloid derived suppressor cells (MDSCs), cells from mouse lung tissue in each group were collected and stained for 30 min at 4° C. with antibodies against specific cell markers, including FITC-conjugated anti-mouse CD11b (for cell surface), APC-Cy7 conjugated anti-mouse Ly-6C and PE conjugated anti-mouse Ly-6G, (both for intracellular staining). All three antibodies were obtained from Biolegend, (San Diego, Calif.). […]

`COC(=O)/C=C/c1cc(O)c2c(c1)C(C(=O)OC)C(c1ccc(O)c(O)c1)O2` (stereo not shown) [Q2-3, methyl(E)-3-[2-(3,4-dihydroxyphenyl)-7-hydroxy-3-methoxycarbonyl-2,3-dihydro-1-benzofuran-5yl]-prop-2-enoate] gave an inhibition at 0.5 µM (SKBR3 cells; Homo sapiens, SK-BR-3, ≥0.5 μM, 24 h and 72 h, vs 0.1% DMSO control, read-out: growth inhibition) of no less than 60%, a kill rate (SKBR3 cells; at 0.3 μM) greater than 50% and a beginning cytotoxic dosage (SKBR3 cells; treatment 24 or 72 h) of 0.3 µM. For the same compound, the “total FSP-1+ER-TR7+ fibroblast population in lung” value (IL-25; 3 weeks post tumor resection, PBS control 5.2%) was 7.3%, the “cell population of IL-25+ fibroblasts (FSP-1+ER-TR7+IL-25+ cells) in lung” value (IL-25; 3 weeks post tumor resection, PBS control 16.7%) was 79.5% and the “IL-25 expression in lung fibroblasts (IF staining)” value (IL-25; Q2-3 100 μg/kg, 21 days post tumor resection) was “readily detectable stimulatory effect”. The “increase in FSP-1+IL-25+ fibroblast population in spleen or other tissues” value (IL-25; data not shown) was “not detected”.
